# Assay results taken from patent US20110104144A1, “METHODS FOR TREATING CUTANEOUS LUPUS USING AMINOISOINDOLINE COMPOUNDS” (CELGENE CORPORATION, priority 2005, published 2011).
# Experiments:
# Type in all cases: cell-based, Human
# CD51/61 = test: HUVEC cell surface expression of CD51/61 by flow cytometry; details: unstimulated, 10 μM, FIG. 1
# Method: (§1) A) Materials. Human Umbilical Vein Endothelial Cells (HUVEC) sent from LifeBank, were tested in Experiments A-K with several adhesion molecules. The adhesion molecules tested were CD51/CD61FITC (obtained from BD PharMingen, San Diego, Calif.; Catalog No. 555505), ICAM-1 PE also known as CD54 (obtained from BD PharMingen, San Diego, Calif.; Catalog No. 555511), ICAM-2 also known as CD102 (obtained from Research Diagnostics Inc., Concord, Mass.; Catalog No. RDI-CBL539FT), VCAM-1 (obtained from BD PharMingen, San Diego, Calif.; Catalog No. 555647), P-Selectin FITC (obtained from R&D Systems, Inc., Minneapolis, Minn.; Catalog No. BBA34), E-Selectin FITC (obtained from R&D Systems, Inc., Minneapolis, Minn.; Catalog No. BBA21), HLA Class I FITC (obtained from BD PharMingen, San Diego, Calif.; Catalog No. 555553), HLA Class II PE (obtained from BD PharMingen, San Diego, Calif.; Catalog No. 555558), CD44 FITC (obtained from BD PharMingen, San Diego, Calif.; Catalog No. 347943), CD144 (Cadherin VE) (obtained from CHEMICON International, Inc., Temecula, Calif.; Catalog No. MAB1989), IgG2a FITC (obtained from BD PharMingen, San Diego, Calif.; Cat #556652), Ms IgG2a (obtained from CHEMICON International, Inc., Temecula, Calif.; Cat. No. PP102), IgG1 FITC (obtained from BD PharMingen, San Diego, Calif.; Cat. No. 349041) and IgG1 PE (obtained from BD PharMingen, San Diego, Calif.; Cat. No. 349043).
# (§2) Compound (1) ((+)-2-[1-(3-ethoxy-4-methoxyphenyl)-2-methylsulfonylethyl]-4-acetylaminoisoindoline-1,3-dione) and Compound (2) (4-(amino)-2-(2,6-dioxo(3-piperidyl))-isoindoline-1,3-dione) were obtained according to the preparation procedures disclosed herein. 16,16-Dimethyl-PGE2 (hereinafter PGE2) was obtained from BIOMOL International, L.P. (Plymouth Meeting, Pa.; Catalog No. PG-021). TNF-αwas obtained from Pierce Biotechnology (Rockford, Ill.; Catalog No. RTNFA 10).
# B) Methods. […]
# P-Selectin = test: HUVEC cell surface expression of P-Selectin by flow cytometry; details: 10 μM
# Method: as §1, §2
# B) Methods. HUVEC's were plated on 6-well plates at a concentration of 1×10^5 cells/well in 3 ml EBM® endothelial basal media (obtained from Cambrex Corporation, East Rutherford, N.J.; Catalog No. CC-3121) and singlequots (obtained from Cambrex Corporation, East Rutherford, N.J.; Catalog No. CC-4133). The cells were incubated overnight in a 37° C. and 5% CO2 humidified incubator to allow cells to attach. The old media was removed in next day and replaced with 3 ml fresh EBM® endothelial basal media. Then, samples of 3 μl of 10 mM of Compound (1), Compound (2), PGE2 and a mixture of Compound (1) and PGE2 were added separately to each well of the plates in duplicate to give a final concentration of 10 μM. An unstimulated DMSO control and a TNF-α-stimulated control were also added in duplicate. The plates were incubated in a 37° C. and 5% CO2 humidified incubator for 1 hr. […] The plates were incubated overnight in a 37° C. and 5% CO2 humidified incubator. The cells were also tested without TNF-α. The media was removed in the next day and each well was washed with 3 ml of phosphate buffered saline (PBS). Then, 3 ml of PBS containing 1 mM of EDTA (ethylenediaminetetraacetate) was added to each well to allow the cells to detach. Once the cells detached, they were gently scraped and placed in 4.5 ml Falcon tubes. The tubes were then centrifuged at 1200 RPM for 8 minutes at 4° C. The supernatant was carefully removed. Next, 50 μl of PBS-FACS buffer (5% fetal bovine serum (FBS), 0.02% sodium azide in PBS) and 20 μl of antibodies were added to all tubes as follows:
# After the antibodies were added, the tubes were incubated on ice for 30 minutes and covered with foil. Then, the tubes were centrifuged at 1200 RPM for 8 minutes at 4° C. The supernatant was carefully removed. The cells were re-suspended in 2 ml of PBS-FACS buffer and centrifuged again as above. The supernatant was carefully removed again and the cells were re-suspended in 500 μl of PBS-FACS buffer. The tubes were then analyzed using a flow cytometer. […]
# VCAM = test: HUVEC cell surface expression of VCAM by flow cytometry; details: TNF-α stimulated, 10 μM, FIG. 5
# Method: A) Materials. Human Umbilical Vein Endothelial Cells (HUVEC) sent from LifeBank, were tested in Experiments A-K with several adhesion molecules. […]
smiles,measurement,setting,value
"CCOc1cc(C(CS(C)(=O)=O)N2C(=O)c3cccc(NC(C)=O)c3C2=O)ccc1OC (single isomer, unassigned; (+)) [Compound (1), (+)-2-[1-(3-ethoxy-4-methoxyphenyl)-2-methylsulfonylethyl]-4-acetylaminoisoindoline-1,3-dione]",CD51/61 cell surface expression compared to untreated conditions,CD51/61,unaffected
same,increase of TNF-α-induced cell expression of P-Selectin above baseline,"P-Selectin; TNF-α (1 ng/ml) stimulated, FIG. 3",40%
same,increase of P-Selectin cell surface expression,"P-Selectin; TNF-α stimulated, FIG. 5",approximately 35%
same,inhibition of P-Selectin expression,"P-Selectin; unstimulated, FIG. 2",approximately 55%
same,decrease of VCAM expression,VCAM,30%
